Where “and” joins values, the source holds several entries; their conditions need not be identical. Equal entries are not always repeated. Where two headings read alike, the source gives them in different places. One block for each compound: values may come before it.
Columns and labels:
[1] = assay type: in vitro ADME, human; settings: for Mean Height / % Remaining: human, 1 μM; for % Remaining: plasma
Method: Compound B1 was spiked directly into an individual lot of fresh human plasma, with sodium heparin as the anticoagulant, such that the final assay concentration of the compound was 1.00 μM. After incubation at room temperature for 0, 0.5, 1, 2, and 4 hours, samples were removed and aliquoted for analysis. Valacyclovir was used as a positive control. The plasma samples containing a test compound were processed by protein precipitation.
A primary 0.500 mM stock solution of compound B1 was prepared in either acetonitrile or acetonitrile:water (1:1, v/v). A 0.200 mM working stock was made from the primary stock in acetonitrile:water (1:1, v/v), which was used in the human plasma stability study. The primary and working stock solutions were stored at −20° C. when not in use. When it was used in the assay, the working stock was kept at room temperature for as short a time as possible.
The human plasma stability study was initiated by adding 5.00 μL of compound B1 stock solution to 0.995 mL of human plasma (sodium heparin) in a 1.7-mL snap tube. Time zero points were generated by immediately removing duplicate 50.0 μL aliquots of plasma after initiating each incubation and quenching in 150 μL of methanol. The plasma incubation tubes were capped and remained at room temperature between time points.
After 0.5, 1, 2, and 4 hours of incubation, duplicate 50.0 μL aliquots of plasma were removed and placed into the extraction tubes containing 150 μL of methanol. Each time point was immediately extracted by vortex mixing, centrifuged and the supernate removed to HPLC vial for analysis. After extraction of all samples, the extracts were analyzed by LC/MS/MS.
LC/MS/MS analysis of the incubation solutions was conducted by initial separation of the test compound peak using chromatography prior to detection by the mass spectrometer. The LC/MS system was comprised of a HPLC coupled with a TQS-Micro or Quattro Premier. The mobile phase was nebulized using heated nitrogen in a Z-spray source/interface set to electrospray in either positive ionization mode or negative ionization mode. The ionized compounds were detected using MS/MS. The data was acquired using MassLynx.

[2] = Compound concentration in the CSF of rats; assay type: in vivo
Method: Compound B1 in the CSF of the rats was also analyzed. The results are shown in Table 4 below wherein BQL stands for below the quantifiable limit of 2.0 ng/mL.

[3] = Pharmacokinetic study in rats; assay type: in vivo
Method: A pharmacokinetic study on compound B1 was carried out in rats.

Metabolism in fresh human plasma [1]: not significantly metabolized
Mean Height ([1]; 0 h): 9,610
Mean Height ([1]; 0.5 h): 9,430
Mean Height ([1]; 1 h): 9,330
Mean Height ([1]; 2 h): 9,610
Mean Height ([1]; 4 h): 9,000
% Remaining ([1]; 0 h): 100%
% Remaining ([1]; 0.5 h): 98.1%
% Remaining ([1]; 1 h): 97.1%
% Remaining ([1]; 2 h): 100%
% Remaining ([1]; 4 h): 93.7%
CSF Concentration ([2]; IV, 0.5 h, individual animals): 26 ng/mL and 17 ng/mL and 36 ng/mL
CSF Concentration ([2]; IV, 1.0 h, individual animals): 51 ng/mL and 391 ng/mL and 17 ng/mL
CSF Concentration ([2]; IV, 2.0 h, individual animals): 33 ng/mL and 27 ng/mL
CSF Concentration ([2]; IV, 4.0 h, individual animals): 10 ng/mL and 21 ng/mL and 4.5 ng/mL
CSF Concentration ([2]; IV, 8.0 h, individual animals): 1.8 ng/mL
concentration at 0.5 h ([2]; rat, CSF, iv, 0.5 h, mean): 27 ng/mL
concentration at 1 h ([2]; rat, CSF, iv, 1.0 h, mean): 153 ng/mL
concentration at 2 h ([2]; rat, CSF, iv, 2.0 h, individual animals, read-out: CSF Concentration): 17 ng/mL
concentration at 2 h ([2]; rat, CSF, iv, 2.0 h, mean, read-out: CSF Concentration, Mean): 26 ng/mL
concentration at 4 h ([2]; rat, CSF, iv, 4.0 h, mean): 12 ng/mL
concentration at 8 h ([2]; rat, CSF, iv, 8.0 h, individual animals, read-out: CSF Concentration): 1.2 ng/mL
concentration at 8 h ([2]; rat, CSF, iv, 8.0 h, mean, read-out: CSF Concentration, Mean): 1.5 ng/mL
concentration at 2 h ([2]; rat, CSF, po, 10 mg/kg, PO, 2.0 h, individual animals, read-out: CSF Concentration): 4.6 ng/mL
concentration at 2 h ([2]; rat, CSF, po, 10 mg/kg, PO, 2.0 h, mean (N=1), read-out: CSF Concentration, Mean): 4.6 ng/mL
AUCINF/Dose ([3]; IV): 2950
CL or CL/F ([3]; IV): 4.8 mL/min/kg
HL ([3]; IV): 1.9 h
AUCINF/Dose ([3]; PO): 43
HL ([3]; PO): 14 h
AUC(0-inf) ([3]; rat, in vivo, 1 mg/kg, IV): 2950 ng·h/mL
AUC(0-t) ([3]; rat, in vivo, 1 mg/kg, IV): 2950 ng·h/mL
Cmax ([3]; rat, in vivo, 1 mg/kg, IV): 3980 ng/mL
AUC(0-inf) ([3]; rat, in vivo, 10 mg/kg, PO): 431 ng·h/mL
AUC(0-t) ([3]; rat, in vivo, 10 mg/kg, PO): 267 ng·h/mL
Cmax ([3]; rat, in vivo, 10 mg/kg, PO): 29 ng/mL
Tmax ([3]; rat, in vivo, 10 mg/kg, PO): 2 h
bioavailability ([3]; rat, in vivo, 10 mg/kg, PO): 1.25%
CL/F ([3]; rat, in vivo, 10 mg/kg, PO, read-out: CL or CL/F): 387 mL/min/kg
Compound: O=C(O)c1ccc(NC(=O)[C@@H]2CCC[C@H](C(=O)Nc3ccc(C(=O)O)cc3)C2)cc1 [B1, 4,4′-(((1R,3S)-cyclohexane-1,3-dicarbonyl)bis(azanediyl))dibenzoic acid]
CSF Concentration ([2]; IV, 0.00 h, individual animals): BQL (below the quantifiable limit of 2.0 ng/mL)
CSF Concentration ([2]; IV, 12 h, individual animals): BQL (below the quantifiable limit of 2.0 ng/mL)
CSF Concentration ([2]; PO, 0.00 h, individual animals): BQL (below the quantifiable limit of 2.0 ng/mL)
CSF Concentration ([2]; PO, 0.5 h, individual animals): BQL (below the quantifiable limit of 2.0 ng/mL)
CSF Concentration ([2]; PO, 1.0 h, individual animals): BQL (below the quantifiable limit of 2.0 ng/mL)
CSF Concentration ([2]; PO, 2.0 h, individual animals): BQL (below the quantifiable limit of 2.0 ng/mL)
CSF Concentration ([2]; PO, 4.0 h, individual animals): BQL (below the quantifiable limit of 2.0 ng/mL)
CSF Concentration ([2]; PO, 8.0 h, individual animals): BQL (below the quantifiable limit of 2.0 ng/mL)
CSF Concentration ([2]; PO, 12 h, individual animals): BQL (below the quantifiable limit of 2.0 ng/mL)

Mean Height ([1]; 0 h): 21,400
Mean Height ([1]; 0.5 h): 20,700
Mean Height ([1]; 1 h): 20,500
Mean Height ([1]; 2 h): 19,800
Mean Height ([1]; 4 h): 17,700
% Remaining ([1]; 0 h): 100%
% Remaining ([1]; 0.5 h): 96.7%
% Remaining ([1]; 1 h): 95.8%
% Remaining ([1]; 2 h): 92.5%
% Remaining ([1]; 4 h): 82.7%
Compound: CC(C)[C@H](N)C(=O)OCCOCn1cnc2c(=O)[nH]c(N)nc21 [Valacyclovir, reference compound]
